Test results from ChEMBL document CHEMBL1201862, “PubChem BioAssay data set” (2004).
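All cell lines were grown in 96-well plates and treated with compound for 48 hours. GI50 = concentration required for 50% inhibition of growth.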 Activity calls are given as the source filed them. Cut-off read from the data, not from the text of the source: active = GI50 up to about 1.1 µM and inactive = higher.

Legend:
Experiment in all cases: DTP human tumour cell line panel, 48 h
A549 = system: A549
ACHN = system: ACHN
COLO 205 = system: COLO 205
EKVX = system: EKVX
HOP-62 = system: HOP-62
IGROV-1 = system: IGROV-1
KM12 = system: KM12
MDA-MB-231 = system: MDA-MB-231
MDA-MB-435 = system: MDA-MB-435
MOLT-4 = system: MOLT-4
NCI-H522 = system: NCI-H522
OVCAR-5 = system: OVCAR-5
RPMI-8226 = system: RPMI-8226
SF-268 = system: SF-268
SK-MEL-5 = system: SK-MEL-5
SK-OV-3 = system: SK-OV-3
U-251 = system: U-251
UACC-257 = system: UACC-257
UO-31 = system: UO-31
NCI-H460 = system: NCI-H460

Measured: GI50

COc1c(Cl)ccc(Cl)c1-c1nnc(-c2c(Cl)c(Cl)c(Cl)c(Cl)c2-c2nc3cc(C(=O)c4ccccc4)ccc3[nH]2)o1
inactive: A549 45.2 µM | ACHN > 100 µM | COLO 205 21.9 µM | EKVX 45.4 µM | HOP-62 43.5 µM | IGROV-1 45.5 µM | KM12 45.5 µM | MDA-MB-231 43.8 µM | MDA-MB-435 21.4 µM | MOLT-4 26.4 µM | NCI-H522 22.9 µM | OVCAR-5 > 100 µM | RPMI-8226 23.8 µM | SF-268 57.1 µM | SK-MEL-5 16.6 µM | SK-OV-3 > 100 µM | U-251 61 µM | UACC-257 82.2 µM | UO-31 75.7 µM

CCOC(=O)C1NCCc2c1[nH]c1ccccc21 (centres undefined)
inactive: A549 > 10 µM | COLO 205 > 10 µM | EKVX > 10 µM | HOP-62 > 10 µM | IGROV-1 > 10 µM | KM12 > 10 µM | MDA-MB-231 > 10 µM | MDA-MB-435 > 10 µM | MOLT-4 > 10 µM | NCI-H522 > 10 µM | RPMI-8226 > 10 µM | SF-268 > 10 µM | SK-MEL-5 > 10 µM | SK-OV-3 > 10 µM | UACC-257 > 10 µM

CC(=O)O[C@@H]1[C@H](OC2CCCCC2(c2ccccc2)c2ccccc2)O[N+]([O-])=CC12CCCCC2 (some centres undefined)
inactive: A549 17.7 µM | ACHN 17.6 µM | COLO 205 16.4 µM | EKVX 17.9 µM | IGROV-1 20.1 µM | KM12 17.2 µM | MDA-MB-231 15.4 µM | MDA-MB-435 15.6 µM | MOLT-4 52 µM | NCI-H460 18.2 µM | NCI-H522 18.6 µM | OVCAR-5 15.8 µM | RPMI-8226 33 µM | SF-268 18.6 µM | SK-MEL-5 15 µM | SK-OV-3 13.4 µM | U-251 17 µM | UACC-257 17.1 µM | UO-31 17.5 µM

CO/N=C(/C)c1cccc(Nc2nc3ccccc3c3[nH]c4ccccc4c23)c1
inactive: A549 8.75 µM | ACHN 3.57 µM | COLO 205 7.33 µM | HOP-62 9.66 µM | IGROV-1 13.5 µM | KM12 3.99 µM | MDA-MB-231 12.1 µM | MDA-MB-435 7.41 µM | MOLT-4 3.96 µM | NCI-H460 2.52 µM | NCI-H522 2.99 µM | OVCAR-5 6.82 µM | SF-268 12.3 µM | SK-MEL-5 5.62 µM | SK-OV-3 17.1 µM | U-251 13.5 µM | UACC-257 13.3 µM | UO-31 10.1 µM

c1ccc(SCCP(CCP(c2ccccc2)c2ccccc2)c2ccccc2)cc1 (centres undefined)
inactive: A549 6.17 µM | ACHN 5.02 µM | COLO 205 8.77 µM | EKVX 9.02 µM | HOP-62 8.2 µM | IGROV-1 6.34 µM | KM12 2.1 µM | MDA-MB-231 6.34 µM | MDA-MB-435 11.5 µM | MOLT-4 11.4 µM | NCI-H460 2.84 µM | OVCAR-5 46.6 µM | RPMI-8226 3.14 µM | SF-268 > 25.5 µM | SK-MEL-5 14 µM | SK-OV-3 6.61 µM | U-251 1.89 µM | UACC-257 11.7 µM | UO-31 7.73 µM

CC(=O)N(CCc1ccccc1)C(C)(C#N)c1ccccc1 (centres undefined)
inactive: A549 > 100 µM | ACHN > 100 µM | COLO 205 > 100 µM | EKVX > 100 µM | HOP-62 > 100 µM | IGROV-1 > 100 µM | KM12 > 100 µM | MDA-MB-231 > 100 µM | MDA-MB-435 > 100 µM | MOLT-4 > 100 µM | NCI-H522 > 100 µM | OVCAR-5 > 100 µM | RPMI-8226 > 100 µM | SF-268 > 100 µM | SK-MEL-5 > 100 µM | SK-OV-3 > 100 µM | U-251 > 100 µM | UACC-257 > 100 µM | UO-31 > 100 µM

Clc1c(Cl)c(Cl)c2c(nnn2C2CCCO2)c1Cl (centres undefined)
inactive: A549 24.7 µM | COLO 205 24.2 µM | EKVX 22.3 µM | HOP-62 40.5 µM | IGROV-1 34.4 µM | MDA-MB-231 43.5 µM | MDA-MB-435 34.1 µM | MOLT-4 23.2 µM | NCI-H460 13.9 µM | NCI-H522 23.8 µM | OVCAR-5 41.7 µM | SF-268 29.8 µM | SK-MEL-5 40.1 µM | SK-OV-3 75.9 µM | U-251 33.8 µM | UACC-257 35.6 µM

CCN(CC)/C(Sc1ccccc1)=C(\C(Cl)=C(Cl)Cl)[N+](=O)[O-]
inactive: A549 21.7 µM | ACHN 17.1 µM | COLO 205 16.4 µM | EKVX 15.6 µM | HOP-62 23.5 µM | IGROV-1 16 µM | KM12 17.7 µM | MDA-MB-231 24.2 µM | MDA-MB-435 13.5 µM | MOLT-4 6.93 µM | NCI-H460 21.7 µM | NCI-H522 12.6 µM | SF-268 21.4 µM | SK-MEL-5 14.1 µM | SK-OV-3 33.4 µM | UACC-257 19.1 µM | UO-31 14.8 µM

CC1CCC2CC1NC(=O)CCOCCC(=O)NC2(C)C (centres undefined)
inactive: A549 > 100 µM | COLO 205 > 100 µM | EKVX > 100 µM | HOP-62 > 100 µM | IGROV-1 > 100 µM | KM12 > 100 µM | MDA-MB-231 > 100 µM | MDA-MB-435 > 100 µM | MOLT-4 > 100 µM | NCI-H460 > 100 µM | NCI-H522 > 100 µM | OVCAR-5 > 100 µM | SF-268 > 100 µM | SK-MEL-5 > 100 µM | SK-OV-3 > 100 µM | U-251 > 100 µM | UACC-257 > 100 µM | UO-31 > 100 µM

CC(C)=CCC[C@@H](C)C1=C(O)C(=O)C(C)=C(N)C1=O
inactive: A549 25.8 µM | ACHN 18 µM | COLO 205 27.9 µM | EKVX 36.1 µM | HOP-62 23.2 µM | IGROV-1 7.69 µM | KM12 23.3 µM | MDA-MB-231 46.5 µM | MDA-MB-435 41 µM | MOLT-4 6.5 µM | NCI-H460 10.2 µM | OVCAR-5 81.5 µM | RPMI-8226 27.3 µM | SF-268 21.5 µM | SK-MEL-5 20.4 µM | SK-OV-3 27.3 µM | U-251 34.8 µM | UACC-257 38.5 µM | UO-31 11.1 µM

CCOC(=O)C1(C#N)OC(=O)c2cnccc21 (centres undefined)
inactive: A549 > 100 µM | ACHN 58.6 µM | COLO 205 > 100 µM | EKVX > 100 µM | IGROV-1 > 100 µM | KM12 > 100 µM | MDA-MB-231 > 100 µM | MDA-MB-435 > 100 µM | MOLT-4 > 100 µM | NCI-H460 > 100 µM | NCI-H522 > 100 µM | OVCAR-5 > 100 µM | RPMI-8226 > 100 µM | SF-268 > 100 µM | SK-OV-3 > 100 µM | U-251 > 100 µM | UACC-257 > 100 µM | UO-31 > 100 µM

C=CC(O)C#Cc1cnc(OC)nc1OC (centres undefined)
inactive: A549 > 100 µM | ACHN > 100 µM | COLO 205 81.5 µM | EKVX > 100 µM | HOP-62 > 100 µM | IGROV-1 > 100 µM | KM12 86.7 µM | MDA-MB-231 > 100 µM | MDA-MB-435 > 100 µM | MOLT-4 32.6 µM | NCI-H460 > 100 µM | NCI-H522 54.2 µM | OVCAR-5 > 100 µM | SF-268 > 100 µM | SK-MEL-5 > 100 µM | U-251 > 100 µM | UACC-257 > 100 µM | UO-31 > 100 µM

Cc1cn(CCOCCOC(=O)NC(CCCNC(N)=O)C(=O)O)c(=O)[nH]c1=O (centres undefined)
inactive: A549 > 100 µM | ACHN > 100 µM | COLO 205 > 100 µM | EKVX > 100 µM | HOP-62 > 100 µM | IGROV-1 36 µM | KM12 > 100 µM | MDA-MB-231 > 100 µM | MDA-MB-435 > 100 µM | MOLT-4 > 100 µM | NCI-H460 > 100 µM | OVCAR-5 > 100 µM | RPMI-8226 > 100 µM | SF-268 > 100 µM | SK-OV-3 > 100 µM | U-251 > 100 µM | UACC-257 > 100 µM | UO-31 > 100 µM

COc1ccc(N2C(=O)C3c4[nH]c5ccc(C)cc5c4C4CCC(C)CC4C3C2=O)cc1 (centres undefined)
inactive: A549 > 100 µM | ACHN 99.3 µM | COLO 205 > 100 µM | EKVX > 100 µM | IGROV-1 > 100 µM | MDA-MB-231 15.1 µM | MDA-MB-435 > 100 µM | MOLT-4 67.5 µM | NCI-H460 > 100 µM | NCI-H522 92 µM | OVCAR-5 > 100 µM | RPMI-8226 > 100 µM | SF-268 37.8 µM | SK-MEL-5 > 100 µM | SK-OV-3 25.3 µM | U-251 53.7 µM | UACC-257 > 100 µM | UO-31 > 100 µM

Cc1sccc1C(=S)Nc1ccc(Cl)c(/C=N/OC(C)(C)C)c1
inactive: A549 20.2 µM | COLO 205 13.9 µM | EKVX 15.8 µM | HOP-62 16 µM | IGROV-1 13.5 µM | KM12 13.2 µM | MDA-MB-231 13.3 µM | MDA-MB-435 21.7 µM | MOLT-4 7.6 µM | NCI-H522 12 µM | OVCAR-5 19.3 µM | RPMI-8226 7.31 µM | SF-268 18.3 µM | SK-MEL-5 13.2 µM | SK-OV-3 21.9 µM | U-251 21.6 µM | UACC-257 17 µM | UO-31 12.5 µM
